Test results published in ChEMBL document CHEMBL5137017, “Identification of NVP-CLR457 as an Orally Bioavailable Non-CNS-Penetrant pan-Class IA Phosphoinositol-3-Kinase Inhibitor” (J Med Chem, 2022).
Values after ≈ are worked out from the molar mass of the structure shown. Active and inactive are the calls of the source. The calls are words filed in the database; no cut-off is given here.

Columns and labels:
[1] = Cmax in OF1 mouse at 10 mg/kg,po or 3 mg/kg,iv measured upto 24 hrs by LC-MS/MS analysis; assay type: ADME, organism-based; set-up: time < 24 hrs, dose 10 mg/kg, route po; conditions: in vivo
[2] = Tlast in athymic nude mouse xenografted with rat Rat1 cells expressing myr-p110alpha at 40 mg/kg, po measured after 8 days by LC-MS/MS analysis; assay type: ADME, organism-based; conditions: in vivo, 192 h, time 8 day
[3] = Drug concentration in OF1 mouse brain at 1 mg/kg, iv measured at 1 hr post dose by LC-MS/MS analysis; assay type: ADME, organism-based; conditions: in vivo
[4] = Inhibition of wild type PI3K in human HCC1806 cells assessed as reduction in phosphorylation of AKT at Ser473 residue by Western blot analysis; assay type: cell-based
[5] = Antitumor activity at patient derived human HBRX2524 xenografted in athymic nude mouse assessed as T/C ratio at 40 mg/kg, po qd measured upto 16 days; assay type: functional; conditions: time <= 16 day
[6] = AUC(0 to Tlast) in athymic nude mouse xenografted with rat Rat1 cells expressing myr-p110alpha at 10 mg/kg, po measured after 8 days by LC-MS/MS analysis; assay type: ADME, organism-based; set-up: time 8 day, dose 10 mg/kg, route po; conditions: in vivo
[7] = Apparent permeability in human Caco-2 cells assessed as Km by Michaelis-Menten based analysis; assay type: ADME, cell-based; conditions: read-out: Km(app)
[8] = Brain to blood ratio in OF1 mouse at 1 mg/kg, iv measured at 5 mins post dose by LC-MS/MS analysis; assay type: ADME, organism-based; conditions: brain and blood, read-out: BBR
[9] = Half life in OF1 mouse at 10 mg/kg,po or 3 mg/kg,iv measured upto 24 hrs by LC-MS/MS analysis; assay type: ADME, organism-based; conditions: in vivo
[10] = Effect on plasma insulin level in athymic nude mouse xenografted with rat Rat1 cells expressing myr-p110alpha at 10 mg/kg, po qd measured upto 14 hrs by glucometer analysis; assay type: toxicity, organism-based; conditions: in vivo
[11] = Dose normalized AUC(0 to Tlast) in athymic nude mouse xenografted with rat Rat1 cells expressing myr-p110alpha at 40 mg/kg, po measured after 8 days by LC-MS/MS analysis; assay type: ADME, organism-based; conditions: in vivo, 192 h, time 8 day
[12] = molecular target: Phosphatidylinositol 4,5-bisphosphate 3-kinase catalytic subunit alpha isoform (Homo sapiens, UniProt P42336); assay: Inhibition of PI3Kalpha (unknown origin) using L-alpha-phosphatidylinositol as substrate in presence of ATP by Kinase Glo luminescence assay
Sequence of Phosphatidylinositol 4,5-bisphosphate 3-kinase catalytic subunit alpha isoform (P42336 whole entry, canonical isoform): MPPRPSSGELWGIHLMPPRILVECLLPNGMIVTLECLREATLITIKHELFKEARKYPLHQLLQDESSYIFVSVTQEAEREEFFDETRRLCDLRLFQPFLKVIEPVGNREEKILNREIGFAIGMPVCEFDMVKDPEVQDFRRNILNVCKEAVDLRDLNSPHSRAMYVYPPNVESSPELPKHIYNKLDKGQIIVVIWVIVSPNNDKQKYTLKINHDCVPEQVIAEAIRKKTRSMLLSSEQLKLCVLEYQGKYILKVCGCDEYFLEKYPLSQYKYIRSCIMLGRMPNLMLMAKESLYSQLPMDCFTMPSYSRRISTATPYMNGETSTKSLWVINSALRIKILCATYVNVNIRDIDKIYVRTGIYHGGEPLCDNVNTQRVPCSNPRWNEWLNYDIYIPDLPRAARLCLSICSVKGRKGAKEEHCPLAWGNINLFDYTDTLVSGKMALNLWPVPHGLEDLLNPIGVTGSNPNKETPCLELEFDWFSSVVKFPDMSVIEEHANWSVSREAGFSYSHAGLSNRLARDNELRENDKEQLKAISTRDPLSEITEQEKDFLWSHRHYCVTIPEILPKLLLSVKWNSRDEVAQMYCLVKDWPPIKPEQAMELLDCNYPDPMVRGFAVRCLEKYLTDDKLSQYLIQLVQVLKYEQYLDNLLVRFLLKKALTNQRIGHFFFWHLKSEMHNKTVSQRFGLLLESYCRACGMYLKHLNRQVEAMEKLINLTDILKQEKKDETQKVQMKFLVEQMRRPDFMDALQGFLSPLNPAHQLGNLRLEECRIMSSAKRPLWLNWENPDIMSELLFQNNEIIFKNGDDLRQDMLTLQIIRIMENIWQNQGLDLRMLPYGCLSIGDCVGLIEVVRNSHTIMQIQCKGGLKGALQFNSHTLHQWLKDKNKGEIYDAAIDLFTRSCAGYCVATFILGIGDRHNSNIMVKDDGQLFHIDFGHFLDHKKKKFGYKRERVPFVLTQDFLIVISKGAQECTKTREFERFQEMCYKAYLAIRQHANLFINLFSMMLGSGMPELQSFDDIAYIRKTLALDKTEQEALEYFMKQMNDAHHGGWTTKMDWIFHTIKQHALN

[13] = Cmax in Beagle dog at 5.4 mg/kg, po measured upto 24 hrs using PVP-ASD form of sample by LC-MS/MS analysis; assay type: ADME, organism-based, Canis lupus familiaris; set-up: dose 5.4 mg/kg, time < 24 hrs, route po; conditions: in vivo
[14] = Tmax in beagle dog at 3 mg/kg, po measured upto 24 hrs by LC-MS/MS analysis; assay type: ADME, organism-based, Canis lupus familiaris; conditions: in vivo
[15] = Dose normalized Cmax in beagle dog at 0.3 mg/kg, po measured upto 24 hrs by LC-MS/MS analysis; assay type: ADME, organism-based, Canis lupus familiaris; conditions: in vivo
[16] = In vivo Inhibition of AKT phosphorylation at Ser473 residue in athymic nude mouse xenografted with rat Rat1-myr-p110alpha cells at 20 mg/kg, po qd measured after 14 hrs; assay type: functional
[17] = cells; conditions: Homo sapiens, U-87 MG, 16 h
[18] = Inhibition of wild type PI3K in human CAL-85-1 cells assessed as reduction in phosphorylation of AKT at Ser473 residue by Western blot analysis; assay type: cell-based
[19] = Tmax in Beagle dog at 6 mg/kg, po measured upto 24 hrs using crystalline form of sample by LC-MS/MS analysis; assay type: ADME, organism-based, Canis lupus familiaris; conditions: in vivo
[20] = 1-octanol, logP of the compound at pH 7.4; assay type: physicochemical
[21] = Dose normalized Cmax in Sprague-Dawley rat at 3 mg/kg, po measured upto 24 hrs by LC-MS/MS analysis; assay type: ADME, organism-based; conditions: in vivo
[22] = Inhibition of PI3K PTEN mutant in human HCC1395 cells assessed as reduction in phosphorylation of AKT at Ser473 residue by Western blot analysis; assay type: cell-based
[23] = Efflux ratio of apparent permeability from […] in human Caco-2 cells at 10 uM incubated upto 120 mins by LC-MS/MS analysis; assay type: ADME, cell-based; conditions: caco-2, 2 h
[24] = Lipophilicity, logD of compound at pH 6.5; assay type: physicochemical; conditions: buffer
[25] = molecular target: Tubulin (Sus scrofa) (UniProt P02554+P02550); assay: Inhibition of porcine tubulin polymerization assessed as inhibition of microtubule polymerization at 15 to 30 uM measured after 1 hr; assay type: protein assay; conditions: dose 15-30 µM
Sequence of Tubulin (Sus scrofa) (P02550 whole entry, looked up): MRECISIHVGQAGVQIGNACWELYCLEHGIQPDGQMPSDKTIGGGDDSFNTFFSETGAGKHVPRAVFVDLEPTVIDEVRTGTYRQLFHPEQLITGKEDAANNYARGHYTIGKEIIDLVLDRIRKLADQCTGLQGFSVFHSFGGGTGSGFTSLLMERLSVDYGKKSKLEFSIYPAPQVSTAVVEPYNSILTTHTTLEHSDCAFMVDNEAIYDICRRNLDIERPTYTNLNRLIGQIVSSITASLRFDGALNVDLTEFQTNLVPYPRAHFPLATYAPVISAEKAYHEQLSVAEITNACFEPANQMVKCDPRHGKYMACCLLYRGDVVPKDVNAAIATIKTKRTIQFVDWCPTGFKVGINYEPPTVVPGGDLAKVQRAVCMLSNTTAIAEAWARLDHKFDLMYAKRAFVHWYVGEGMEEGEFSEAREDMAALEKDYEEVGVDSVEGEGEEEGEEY
Sequence of Tubulin (Sus scrofa) (P02554 whole entry, looked up): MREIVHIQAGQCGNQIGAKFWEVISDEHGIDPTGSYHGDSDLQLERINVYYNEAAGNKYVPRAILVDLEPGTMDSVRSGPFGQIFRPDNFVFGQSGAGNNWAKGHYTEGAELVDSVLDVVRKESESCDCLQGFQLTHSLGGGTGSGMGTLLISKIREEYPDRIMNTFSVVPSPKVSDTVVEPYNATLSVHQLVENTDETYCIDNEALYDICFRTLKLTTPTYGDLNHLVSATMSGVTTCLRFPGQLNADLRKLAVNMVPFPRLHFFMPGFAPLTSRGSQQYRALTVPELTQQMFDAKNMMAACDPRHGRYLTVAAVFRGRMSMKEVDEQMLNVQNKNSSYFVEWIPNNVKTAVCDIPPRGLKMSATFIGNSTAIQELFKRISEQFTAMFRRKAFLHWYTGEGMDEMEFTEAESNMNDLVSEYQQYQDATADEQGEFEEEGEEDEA

[26] = Tmax in Sprague-Dawley rat at 30 mg/kg, po measured upto 24 hrs by LC-MS/MS analysis; assay type: ADME, organism-based; conditions: in vivo
[27] = Stability in rat liver microsomes assessed as hepatic extraction preincubated for 3 mins followed by NADPH addition and measured after 60 mins; assay type: ADME, Microsome; conditions: read-out: ERH
[28] = Tmax in beagle dog at 0.3 mg/kg, po measured upto 24 hrs by LC-MS/MS analysis; assay type: ADME, organism-based, Canis lupus familiaris; conditions: in vivo
[29] = Drug concentration in OF1 mouse blood at 1 mg/kg, iv measured at 5 mins post dose by LC-MS/MS analysis; assay type: ADME, organism-based; conditions: whole blood, read-out: Ct
[30] = Dose normalized AUC(0 to Tlast) in athymic nude mouse xenografted with rat Rat1 cells expressing myr-p110alpha at 10 mg/kg, po measured after 8 days by LC-MS/MS analysis; assay type: ADME, organism-based; conditions: in vivo, 192 h, time 8 day
[31] = Cmax in Beagle dog at 6 mg/kg, po measured upto 24 hrs using crystalline form of sample by LC-MS/MS analysis; assay type: ADME, organism-based, Canis lupus familiaris; set-up: dose 6 mg/kg, time < 24 hrs, route po; conditions: in vivo
[32] = molecular target: Phosphatidylinositol 4,5-bisphosphate 3-kinase catalytic subunit gamma isoform (Homo sapiens, UniProt P48736); assay: Inhibition of PI3Kgamma (unknown origin) using phosphatidylinositol 4,5-bisphosphate as substrate measured for 15 to 60 mins by TR-FRET based Adapta universal kinase assay
Sequence of Phosphatidylinositol 4,5-bisphosphate 3-kinase catalytic subunit gamma isoform (P48736 whole entry, canonical isoform): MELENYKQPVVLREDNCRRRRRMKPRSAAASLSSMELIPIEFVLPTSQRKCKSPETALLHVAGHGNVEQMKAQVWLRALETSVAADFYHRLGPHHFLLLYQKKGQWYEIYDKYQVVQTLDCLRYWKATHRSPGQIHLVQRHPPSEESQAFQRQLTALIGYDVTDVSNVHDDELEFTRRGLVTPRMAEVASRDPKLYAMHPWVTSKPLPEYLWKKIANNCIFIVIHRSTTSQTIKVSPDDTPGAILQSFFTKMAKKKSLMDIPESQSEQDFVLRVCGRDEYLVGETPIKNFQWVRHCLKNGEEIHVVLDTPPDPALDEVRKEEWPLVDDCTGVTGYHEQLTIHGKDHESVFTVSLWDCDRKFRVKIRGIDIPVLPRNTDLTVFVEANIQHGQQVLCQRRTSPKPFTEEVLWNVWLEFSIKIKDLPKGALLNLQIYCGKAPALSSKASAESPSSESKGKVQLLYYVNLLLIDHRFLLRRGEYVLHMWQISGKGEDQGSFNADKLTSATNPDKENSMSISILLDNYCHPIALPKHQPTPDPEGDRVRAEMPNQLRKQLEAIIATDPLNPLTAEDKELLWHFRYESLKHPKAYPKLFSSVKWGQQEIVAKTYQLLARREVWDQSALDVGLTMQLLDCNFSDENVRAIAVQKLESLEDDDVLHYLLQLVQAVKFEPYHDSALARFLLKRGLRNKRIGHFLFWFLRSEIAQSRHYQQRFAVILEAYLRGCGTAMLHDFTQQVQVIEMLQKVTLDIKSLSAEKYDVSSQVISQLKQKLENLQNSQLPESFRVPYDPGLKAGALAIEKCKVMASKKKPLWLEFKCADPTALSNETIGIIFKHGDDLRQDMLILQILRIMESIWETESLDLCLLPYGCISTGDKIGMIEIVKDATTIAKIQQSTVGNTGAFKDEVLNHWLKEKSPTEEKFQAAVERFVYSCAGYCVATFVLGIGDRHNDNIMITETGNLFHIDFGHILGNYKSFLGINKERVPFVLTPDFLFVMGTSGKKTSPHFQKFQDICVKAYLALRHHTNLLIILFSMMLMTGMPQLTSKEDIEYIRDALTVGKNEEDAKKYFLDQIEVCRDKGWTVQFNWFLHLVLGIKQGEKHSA

[33] = Solubility of compound in simulated gastric fluid at pH 2 measured upto 30 mins by HPLC analysis; assay type: physicochemical
[34] = Dose normalized AUC in beagle dog at 0.1 mg/kg, iv measured upto 24 hrs by LC-MS/MS analysis; assay type: ADME, organism-based, Canis lupus familiaris; conditions: in vivo
[35] = Oral bioavailability in Sprague-Dawley rat at 3 mg/kg measured for 0.25 to 24 hrs by LC-MS/MS analysis; assay type: ADME, organism-based; conditions: in vivo, time 0.25-24 hrs
[36] = Effect on plasma insulin level in athymic nude mouse xenografted with rat Rat1 cells expressing myr-p110alpha at 20 mg/kg, po qd measured for 1 to 10 hrs by glucometer analysis; assay type: toxicity, organism-based; conditions: in vivo, time 1-10 hrs
[37] = Solubility of compound in FaSSIF at pH 5.8 measured upto 120 mins by HPLC analysis; assay type: physicochemical
[38] = Half life in beagle dog at 0.3 mg/kg,po or 0.1 mg/kg,iv measured upto 24 hrs by LC-MS/MS analysis; assay type: ADME, organism-based, Canis lupus familiaris; conditions: in vivo
[39] = AUC(0 to Tlast) in athymic nude mouse xenografted with rat Rat1 cells expressing myr-p110alpha at 20 mg/kg, po measured after 8 days by LC-MS/MS analysis; assay type: ADME, organism-based; set-up: dose 20 mg/kg, time 8 day, route po; conditions: in vivo
[40] = Tlast in athymic nude mouse xenografted with rat Rat1 cells expressing myr-p110alpha at 3 mg/kg, po measured after 8 days by LC-MS/MS analysis; assay type: ADME, organism-based; conditions: in vivo, 192 h, time 8 day

For `C[C@H]1OC(=O)N(c2nc(-c3cnc(N)nc3C(F)(F)F)cc(N3CCOCC3)n2)[C@H]1CO`, which Cmax [1] is on record?
Its Cmax is 422 nM.

What about the Tlast [2] of the same compound?
Its Tlast is 24 h.

And the Ct [3]?
Its Ct is 31 pmol/g.

What about the IC50 [4] of the same compound?
Its IC50 is 204 nM.

And the T/C [5]?
Its T/C is -0.2.

What about the AUC(0-t) at 192 h [6] of the same compound?
The AUC(0-t) at 192 h was 16 µM·h.

And the Km [7]?
The Km was over 30 µM.

And the Kp at 5 min [8]?
The Kp at 5 min was 0.02.

And the half-life [9]?
Its half-life is 2 h.

What about the Activity [10] of the same compound?
The Activity was “Toxic”.

And the AUC/dose [11]?
Its AUC/dose is 1.35 µM·h.

And the IC50 [12]?
The IC50 was 12 nM.

And the Cmax [13]?
The Cmax was 10700 nM.

And the Tmax [14]?
Its Tmax is 2 h.

And the Cmax/dose [15]?
The Cmax/dose was 1121 nM.

And the inhibition in vivo at 20 mg/kg [16]?
Its inhibition in vivo at 20 mg/kg is 76%.

And the IC50 [17]?
Its IC50 is 100 nM.

What about the IC50 [18] of the same compound?
Its IC50 is 30 nM.

What about the Tmax [19] of the same compound?
Its Tmax is 4 h.

And the logD [20]?
Its logD is 2.

And the Cmax/dose [21]?
The Cmax/dose was 213 nM.

What about the IC50 [22] of the same compound?
Its IC50 is 169 nM.

And the Ratio [23]?
Its Ratio is 2.2.

What about the logD [24] of the same compound?
Its logD is 2.

And the inhibition [25]?
Its inhibition is “Active”.

And the Tmax [26]?
Its Tmax is 4 h.

And the hepatic extraction ratio at 1 h [27]?
The hepatic extraction ratio at 1 h was 0.35.

What about the Tmax [28] of the same compound?
The Tmax was 1 h.

And the concentration at 5 min [29]?
The concentration at 5 min was 3040 nM.

And the AUC/dose [30]?
The AUC/dose was 1.57 µM·h.

What about the Cmax [31] of the same compound?
Its Cmax is 1240 nM.

And the IC50 [32]?
Its IC50 is 230 nM.

What about the solubility at 0.5 h [33] of the same compound?
Its solubility at 0.5 h is 64 µM (≈ 29.1 µg/mL).

What about the AUC/dose [34] of the same compound?
The AUC/dose was 11213 nM·h.

What about the bioavailability [35] of the same compound?
Its bioavailability is 97%.

What about the Activity [36] of the same compound?
Its Activity is “Toxic”.

And the solubility at 2 h [37]?
The solubility at 2 h was 51 µM (≈ 23.2 µg/mL).

And the half-life [38]?
Its half-life is 11 h.

And the AUC(0-t) at 192 h [39]?
The AUC(0-t) at 192 h was 26 µM·h.

What about the Tlast [40] of the same compound?
Its Tlast is 14 h.
